Experimental findings from patent publication US20130012473A1, “COMBINED USE OF PHOSPHOLIPID AND SULFATE GROUPS-CARRYING POLYSACCHARIDES FOR INHIBITING METASTATIC SPREAD” (KTB TUMORFORSCHUNGSGESELLSCHAFT MBH, priority 2010, published 2013) are described below.

Assay [1] deals with B16.F10 ELN melanoma cells. As to the kind of experiment: Experimental lung metastasis model, luciferase assay of lung homogenates. The format is in vivo, mouse. The method, then:
Generation of luciferase expressing B16.F10 melanoma cells: For sensitive detection of metastases in vivo in lung and other murine tissues, stably luciferase-transduced B16.F10 ELN melanoma cells were established as recently described (Bornmann, C. et al., Cancer Chemother. Pharmacol. 61:395-405 (2008)).
Animal experiments: Lung metastases were induced by injecting 3×10^5 cells in 100 μl PBS into the tail vein of male C57BI/6N mice (Charles River Laboratories, Sulzfeld, Germany) (Ludwig, R. J. et al., Cancer Res. 64:2743-2750 (2004)). […] In a further experiment, animals were pre-treated 30 min before cell injection with 50 IU (Ludwig, R. J. et al., Cancer Res. 64:2743-2750 (2004)) unfractionated heparin (Ratiopharm GmbH, Ulm, Germany), followed by injection of either long-term 450 μM LysoPC treated or DMEM control medium cultured B16.F10 ELN cells. Experiments were terminated on day 14 (see establishment of the model—FIG. 9). Tissues were removed and stored as snap frozen samples. Metastatic lesions were quantified by homogenizing the tissues in luciferase lysis buffer and measuring in a luciferase assay (Promega E1501) as described (Jantscheff, P. et al., Establishment of human orthotopic LNCaP prostate cancer xenograft metastases model: Effect of Gemcitabine and GemLip. Clin. Exp. Metastasis: in press (2009); Jantscheff, P. et al., Prostate 69:1151-1163 (2009)).
Example 4: Inhibition of in vivo metastasis of B16.F10 ELN cells pretreated with LysoPC. […] For a sensitive quantitative analysis of metastatic spread in the lung, luciferase-transduced B16.F10 ELN cells were used. […]
To establish the mice metastasis model with luciferase-transduced B16.F10 melanoma cells, metastatic lesions in the lung and other tissues (those strongly supplied with blood, spleen, liver, kidney) were investigated at different time points (6 h, 24 h, 7 d, 14 d, and 19 d). Sensitivity of in vitro detection of metastatic lesions was determined as recently described (Jantscheff, P. et al., Prostate 69:1151-1163 (2009)) and limited corresponding to the detection of about 1000 cells in 1 ml tissue lysate (data not shown). Three to four animals were analyzed at each time point and metastatic lesions in lung and other tissues were determined by in vitro luciferase assay in tissue homogenates (see Material and Methods). As shown in A) significant metastasis could be detected first at day 7 and reached a plateau at day 14 in the lung. […] Therefore, in future experiments the animals were analyzed at day 14 and the experiments were limited to this time frame. Using the same scale, no metastatic lesions were detected in the other organs. […]

Assay [2] concerns VLA-4 adhesion of B16.F10 cells to VCAM-1. As to the kind of experiment: Parallel plate flow chamber assay, cell adhesion to immobilized VCAM-1. The format is cell-based, mouse. The method, then: Flow chamber assay: The interaction of B16.F10 cells with VCAM-1 Fc chimera under physiological flow conditions was analyzed on glass slides coated with VCAM-1 Fc chimera in a parallel plate flow chamber, as described in detail in our previous investigations (Fritzsche, J. et al., Thromb. Haemost. 100:1166-1175 (2008)).
Example 2: Impact of LysoPC treatment of B16.F10 cells on adhesion receptor activity in vitro. In order to investigate the concentration and time dependent effects of LysoPC on the receptor mediated cell binding ability, VLA-4 adhesion of B16.F10 cells to a support-fixed VCAM-1 layer was investigated (FIG. 2A). […] The LysoPC effects on adhesion became amplified by repeated LysoPC feeding.

The next assay deals with VLA-4. Put plainly: Flow cytometry, VLA-4 surface expression (anti-mouse CD49d mAb). Type of assay: cell-based. Conditions: repeatedly incubated with 450 μM LysoPC for 13 days. The protocol:
(§1) FIG. 3: Impact of exogenous LysoPC on the surface expression of VLA-4 or VCAM-1- and P-selectin-ligands. (A) Surface expression of VLA-4 on B16.F10 cells treated with 450 μM LysoPC for 13 days was controlled by flow cytometric analysis. […] FACS histograms (A-C) show one representative of three independent experiments. In all experiments cells only incubated with the respective FITC-conjugated detection antibody served as control.
In general terms: In flow cytometry, cells or beads pass a laser one at a time.

For the next assay, the system named is P-selectin ligands. Put plainly: Flow cytometry, binding of soluble P-selectin Fc chimera. The format is cell-based, mouse. Conditions: 450 μM LysoPC treated cells vs control cells. The protocol: as §1

On to `CCCCCCCCCCCCCCCCC(=O)OC[C@@H](O)COP(=O)([O-])OCC[N+](C)(C)C` [LysoPC], for which the “metastatic lesions in the lung, mean percentage relative to untreated controls (100%)” value in assay [1] (B16.F10 ELN cells treated ex vivo six times with 450 μM LysoPC (long-term), injected i.v., lung luciferase assay day 14) is 51.7%. Also, the “lung luciferase activity compared to control” value in assay [1] (cells treated twice with 300 μM LysoPC (short-term), day 14) was “slightly but insignificantly enhanced luciferase activity”. Further, the “macroscopically visible metastatic foci on lung surface” value is “clearly smaller numbers of metastatic foci” in assay [1] (long-term 450 μM LysoPC group, day 14); “no differences were seen between the control and the short-term group” in assay [1] (short-term 300 μM LysoPC group vs control, day 14). The “cell binding to support-fixed VCAM-1” value in assay [2] (repeated addition of 300 μM LysoPC (13 days)) was “no effect in reducing the VLA-4 binding”; in assay [2] (single incubation with 300 μM LysoPC for 72 h) it was “did not mediate significant binding decrease”; in assay [2] (single incubation with 450 μM LysoPC for 72 h before VLA-4 activation), “significantly impaired the cell binding”; in assay [2] (treated six times with 450 μM LysoPC (13 days)) it was “complete binding inhibition”. Also, the VLA-4 receptor expression entry in the assay with VLA-4 is “did not influence VLA-4 receptor expression”. Moreover, in the assay on P-selectin ligands, the “expression of P-selectin ligands (P-selectin-Fc chimera binding)” value was “remained unchanged”.
